Key:
[1] = system: HMLER CSC-depleted; test: Cytotoxicity against CSC-depleted breast cancer cells; assay type: cell-based
Source text: (§1) Cancer relapse is strongly linked to the existence of CSCs. […] Conventional chemotherapy and radiotherapy are often ineffective against CSCs. Although current therapies effectively reduce tumor mass by destroying the bulk of cancer cells, they are unable to remove CSCs, which persist and generate new tumors, often of a far more aggressive nature. Therefore, in order to improve clinical outcomes, treatments must have the ability to kill the entirety of cancer cells, including CSCs. The osmium compound, described in Formula (I), wherein X^1, X^2, and X^3 were chloride ligands and the bidentate ligand was a 1,10-phenanthroline ligand, was able to kill breast cancer cells (HMLER) enriched with CSCs, 2.3-fold better than CSC-depleted breast cancer cells. […] The selectivity of the osmium compound can be seen in Table 2 as well as FIGS. 17A-B and 18.
(§2) The colorimetric MTT assay was used to determine the toxicity of the osmium complexes and cisplatin. Cells (2×10^3) were seeded in each well of a 96-well plate. After incubating the cells overnight, various concentrations of test compound (0.3-100 μM) were added and incubated for 72 h (total volume 200 μL). The test compounds were prepared as 10 mM solutions in DMSO and diluted using media. The final concentration of DMSO in each well was 0.5% and this amount was present in the untreated control as well. Cisplatin was prepared as a 5 mM solution in PBS and diluted further using media. After 72 h, the medium was removed, 200 μL of a 0.4 mg/mL solution of MTT in DMEM or RPMI was added, and the plate was incubated for an additional 1-2 h. The DMEM/MTT or RPMI/MTT mixture was aspirated and 200 μL of DMSO was added to dissolve the resulting purple formazan crystals. The absorbance of the solution wells was read at 550 nm. Absorbance values were normalized to DMSO-containing control wells and plotted as concentration of test compound versus % cell viability. IC50 values were interpolated from the resulting dose dependent curves. The reported IC50 values are the average from at least three independent experiments, each of which consisted of six replicates per concentration level.

[2] = Stability of 2 by UV-vis spectroscopy and variable temperature 1H NMR; assay type: physicochemical
Source text: The bidentate ligands used were 2,2′-bipyridine, 1,10-phenanthroline, 3,4,7,8-tetramethyl-1,10-phenanthroline, and 4,7-diphenyl-1,10-phenanthroline. The complexes were synthesized by reacting (Bu4N)[OsNCl4] with the appropriate ligand in acetone or dichloromethane. Characterization of 1-4 and the crystal structure of 4 are reported in Example 4. Prior to carrying out cellular studies, the stability of 2, taken as a representative member of the family, in phosphate buffered saline (PBS) and DMEM cell culture media was established by UV-vis spectroscopy. […] The water-octanol coefficient (log P) for each compound was also determined.

[3] = system: phosphorylated H2AX (γH2AX), CHK2, CHK1, p53 (Ser15) in A2780 cells; test: Immunoblotting analysis, DNA damage pathway; assay type: cell-based, human; details: 72 hours
Experimental: To gain further insight into the modes of action of 2 and 4, immunoblotting analyses were conducted to monitor changes in expression of biomarkers related to the DNA damage pathway (FIG. 8). […] This difference could be related to steric effects imposed by the phenyl groups in 4.
A2780 cells (5×10^5 cells) were incubated with the osmium complexes (concentrations, μM) for 72 h at 37° C. Cells were washed with PBS, scraped into SDS-PAGE loading buffer (64 mM Tris-HCl (pH6.8)/9.6% glycerol/2% SDS/5% β-mercaptoethanol/0.01% Bromophenol Blue), and incubated at 95° C. for 10 min. Whole cell lysates were resolved by 4-20% sodium dodecylsulphate polyacylamide gel electrophoresis (SDS-PAGE; 200 V for 25 min) followed by electro transfer to polyvinylidene difluoride membrane, PVDF (350 mA for 1 h). Membranes were blocked in 5% (w/v) non-fat milk in PBST (PBS/0.1% Tween 20) and incubated with the appropriate primary antibodies (Cell Signalling Technology and Santa Cruz). After incubation with horseradish peroxidase-conjugated secondary antibodies (Cell Signalling Technology), immune complexes were detected with the ECL detection reagent (BioRad) and analyzed using an Alpha Innotech ChemiImager™ 5500 fitted with a chemiluminescence filter.

[4] = system: ct-DNA; test: DNA binding kinetics (osmium bound to precipitated ct-DNA); details: 25 μM complex, 250 μM ct-DNA, 37° C.
Experimental: The osmium compounds were hypothesized to induce cell death through DNA interactions. Therefore, the interaction of 2 or 4 with pUC19 plasmid DNA was investigated using gel electrophoresis; the results of which are as shown in FIG. 6. As the concentration of 2 increased, there was a clear increase in the amount of nicked circular, and a concomitant decrease in the amount of supercoiled, plasmid DNA. At concentrations >250 μM, the bands in the gel smeared and then disappeared. […] The DNA binding kinetics of 2 and 4 were studied by measuring the amount of osmium bound to precipitated ct-DNA; the results of which are as shown in FIG. 7. The half-life of this reaction for 2 was 2 hours.
The amount of osmium covalently bound to ct-DNA was determined by modification of a previously reported protocol. A solution of ct-DNA (0.25 mM, nucleotide) was incubated with 2 or 4 at a bp:metal complex ratio of 5:1 at 37° C. in 1 mM sodium phosphate buffer, pH 7.4, containing 3 mM NaCl. At certain time points, a 250 μL aliquot was removed and the DNA was precipitated by adding 10 μL of NaCl (5 M) and 1.0 mL of EtOH (stored at 4° C.). The solution was centrifuged to remove DNA, and the concentration of unbound osmium was determined by GF-AAS.

[5] = system: HMLER^tax CSC-enriched; test: Cytotoxicity against CSC-enriched breast cancer cells; assay type: cell-based
Source text: as §1, §2

| Structure (SMILES) | IC50 [1] [µM] | stability in phosphate buffered saline (PBS) and DMEM cell culture media ([2]; UV-vis spectroscopy) | thermal stability ([2]; variable temperature 1H NMR spectroscopy) | expression of DNA damage pathway biomarkers [3] | half-life of ct-DNA binding reaction [4] [h] | IC50 [5] [µM] | HMLER^tax selectivity ([5]; CSC-enriched vs CSC-depleted) |
| --- | --- | --- | --- | --- | --- | --- | --- |
| [N]#[Os]1([Cl])([Cl])([Cl])[N]2C=CC=c3ccc4c(c32)[N]1C=CC=4 [Complex 2, OsN(1,10-phenanthroline)Cl3] | 11.2 | established | demonstrated | marked increase in expression of the phosphorylated forms of H2AX (γH2AX), CHK2, CHK1, and p53 (Ser15) | 2 | 4.91 | 2.31 |
| [N]#[Os]1([Cl])([Cl])([Cl])[N]2C=CC(c3ccccc3)=c3ccc4c(c32)[N]1C=CC=4c1ccccc1 [Complex 4, OsN(4,7-diphenyl-1,10-phenanthroline)Cl3] | – | – | – | little signs of DNA damage | – | – | – |

Source: patent US10662210B2, “Compositions and methods comprising osmium for the treatment of cancers” (Massachusetts Institute of Technology, priority 2014, dated 2020)
